Source: patent US11957649B2, “Methods and pharmaceutical preparations for elevating ketone utilization” (GLYKON TECHNOLOGIES GROUP, LLC, priority 2020, dated 2024)

How the values were obtained:
[1] = system: intestinal alpha-glucosidase; conditions: background statement, in vitro; cited from earlier work
[2] = biological target: T1, pancreatic alpha-amylase (Homo sapiens, UniProt P04746); conditions: background statement, in vitro; cited from earlier work
T1 sequence (P04746 16-511): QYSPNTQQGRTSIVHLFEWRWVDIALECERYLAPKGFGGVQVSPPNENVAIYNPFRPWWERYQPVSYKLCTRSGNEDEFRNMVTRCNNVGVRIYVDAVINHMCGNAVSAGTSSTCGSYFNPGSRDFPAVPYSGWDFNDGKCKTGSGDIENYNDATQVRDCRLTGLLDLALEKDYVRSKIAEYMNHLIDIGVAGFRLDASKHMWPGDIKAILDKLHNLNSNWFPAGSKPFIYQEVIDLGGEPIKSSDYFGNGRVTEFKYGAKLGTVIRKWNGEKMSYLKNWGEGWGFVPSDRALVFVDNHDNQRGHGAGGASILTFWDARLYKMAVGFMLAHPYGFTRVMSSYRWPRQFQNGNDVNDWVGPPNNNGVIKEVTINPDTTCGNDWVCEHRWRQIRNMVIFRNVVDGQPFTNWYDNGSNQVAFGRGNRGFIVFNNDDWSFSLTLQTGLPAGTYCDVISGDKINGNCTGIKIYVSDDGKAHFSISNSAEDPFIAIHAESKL

[3] = Blood levels of biomolecules before and 90 minutes after administration; format: in vivo, human
Description: Subject 5 was a person, weighing approximately 285 pounds and with a normal fasting blood sugar level of 115-120. First, blood was drawn from Subject 5 and levels of various biomolecules were measured. Next, Subject 5 was administered 16.66 ml of the Example 1 formulation on an empty stomach, i.e. wherein with each 16.66 ml the subject received 5,000 mg of the potassium-magnesium (−)-hydroxycitric acid salt, corresponding to 3490 mg of (−)-hydroxycitric acid. 90 minutes after the administration, blood was drawn from Subject 5 and levels of the various biomolecules were remeasured.
Subject 6 was administered 16.66 ml of the Example 1 formulation on an empty stomach, i.e. wherein with each 16.66 ml the subject received 5,000 mg of the potassium-magnesium (−)-hydroxycitric acid salt, corresponding to 3490 mg of (−)-hydroxycitric acid. 90 minutes after the administration, blood was drawn from Subject 6 and levels of the various biomolecules were remeasured.

[4] = biological target: T2, ATP citrate lyase (Homo sapiens, UniProt P53396); conditions: background statement; cited from earlier work
T2 sequence (P53396 1-1101): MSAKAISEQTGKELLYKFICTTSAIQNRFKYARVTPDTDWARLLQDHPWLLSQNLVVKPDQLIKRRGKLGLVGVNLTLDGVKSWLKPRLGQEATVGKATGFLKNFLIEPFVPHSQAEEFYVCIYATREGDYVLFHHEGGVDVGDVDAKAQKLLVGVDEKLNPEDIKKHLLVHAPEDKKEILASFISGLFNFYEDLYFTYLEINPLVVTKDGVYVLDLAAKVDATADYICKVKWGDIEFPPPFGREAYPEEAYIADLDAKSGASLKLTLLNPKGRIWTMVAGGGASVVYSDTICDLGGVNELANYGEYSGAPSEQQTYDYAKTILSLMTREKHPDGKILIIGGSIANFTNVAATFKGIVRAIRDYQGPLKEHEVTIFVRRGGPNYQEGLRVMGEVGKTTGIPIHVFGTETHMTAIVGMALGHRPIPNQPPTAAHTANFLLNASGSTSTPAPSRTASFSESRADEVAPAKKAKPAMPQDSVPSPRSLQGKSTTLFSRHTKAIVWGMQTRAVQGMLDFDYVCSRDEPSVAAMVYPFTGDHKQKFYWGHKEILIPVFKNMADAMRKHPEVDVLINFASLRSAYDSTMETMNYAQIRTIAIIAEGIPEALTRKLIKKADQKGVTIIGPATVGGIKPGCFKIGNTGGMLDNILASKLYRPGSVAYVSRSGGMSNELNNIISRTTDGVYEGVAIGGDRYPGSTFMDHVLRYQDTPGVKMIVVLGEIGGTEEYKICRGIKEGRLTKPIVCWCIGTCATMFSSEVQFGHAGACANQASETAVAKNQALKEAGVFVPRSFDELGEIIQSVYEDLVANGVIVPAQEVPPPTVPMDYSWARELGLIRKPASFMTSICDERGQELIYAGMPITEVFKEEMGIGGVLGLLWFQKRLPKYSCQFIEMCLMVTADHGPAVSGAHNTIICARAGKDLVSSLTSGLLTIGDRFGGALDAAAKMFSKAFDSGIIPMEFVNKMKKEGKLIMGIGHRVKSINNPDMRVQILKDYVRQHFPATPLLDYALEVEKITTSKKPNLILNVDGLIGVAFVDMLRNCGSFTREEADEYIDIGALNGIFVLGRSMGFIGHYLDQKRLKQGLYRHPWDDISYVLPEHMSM

[5] = fNIRS measurement of blood hemoglobin and oxygen saturation after oral administration; format: in vivo, human; conditions: overall statement on HCA administration
Description: Subjects 1-4 were orally administered the formulation of Example 1. The Subjects were given either one or two administrations of 8.33 ml of the aqueous formulation of Example 1 on an empty stomach, i.e. wherein with each 8.33 ml the subject received 2,500 mg of the potassium-magnesium (−)-hydroxycitric acid salt, corresponding to 1745 mg of (−)-hydroxycitric acid.
fNIRS testing (functional Near Infrared Spectroscopy) was used to measure blood hemoglobin and oxygen saturation. fNIRS can be used to determine real-time peripheral and cerebral hemodynamic responses. For example, relative changes in HbR (deoxygen saturation), HbO (oxygen saturation), and HbT (total hemoglobin concentration), etc. can be determined via application of Modified Beer Lambert Law. HbR, Hb=deoxygen saturation (shown as the thinnest and bottom dashed line in FIG. 1) HbO, HbO2=oxygen saturation (shown as the medium-thickness and middle line in FIG. 1) HbT=total hemoglobin concentration (shown as the darkest, thickest and top line in FIG. 1). On the graphs, time is in seconds.

[6] = overall conclusion on HCA administration

Row | SMILES | inhibition of intestinal alpha-glucosidase [1] | inhibition of pancreatic alpha-amylase [2] | Ketones Result ([3]; Subject 5, 16.66 ml on empty stomach, 90 mins after administration, before (fasting) 0.6) | cortisol [3, 6] | levels of ketones [3, 6] | triglycerides [3, 6] | glucose ([3]; overall conclusion on HCA administration, in some cases transient) | inhibition of ATP citrate lyase [4] | blood hemoglobin [5] | oxygen saturation [5]
1 | O=C(O)C[C@](O)(C(=O)O)[C@H](O)C(=O)O [(2S,3R)-HCA] | inhibits | inhibits | – | – | – | – | – | – | – | –
2 | O=C(O)CC(O)(C(=O)O)C(O)C(=O)O (stereo not shown) [HCA, 1,2-dihydroxypropane-1,2,3-tricarboxylic acid] | – | – | 0.5 | decreased | relatively stable or slightly lower levels | decreased | increased | competitive inhibitor | increased | increased
